According to patent US9279105B2, “Enrichment of stem cells from adult tissues” (Board of Supervisors of Louisiana State University And …, priority 2009, dated 2016):

Assays:
Format in all cases: cell-based, rat
[1] = system: DFSCs; assay: Doxorubicin treatment of DFSCs, count of viable cells (survival rate); details: DOX 1 μM, incubation increased from 2 to 4 to 6 hours, compared to control without DOX; FIG. 2
Procedure: (§1) Establishment of cell cultures from rat dental follicle: Dental follicles (DF) were surgically removed from the first mandibular molars of Sprague Dawley rat pups at days 5-7 postnatally, and the isolated DF cells then suspended in MEM medium containing 10% newborn calf serum (NCS), 1 mM sodium pyruvate and antibiotics as previously described (Wise et al., 1992). Next, 5 ml of the cell suspension was transferred into a T-25 cell culture flask and incubated overnight to allow the cells to adhere. […]
In another experiment to determine to enrich the populations of stem cells, DFSCs were treated with doxorubicin (DOX), a substrate of BCRP, at concentrations of 0.5, 1 or 2 μM for 1, 2, 4 and 6 hrs. […] The number of viable cells was counted in 5 to 10 randomly selected spots (1 mm^2 each) for calculation of the survival rate as the ratio of treatment/control. […]

[2] = system: DFSCs; assay: Adipogenesis differentiation of cells surviving DOX, Oil Red O staining; details: cells that survived DOX for 4 hours; untreated control DFSCs formed only a few adipocytes
Procedure: To determine the differentiation capabilities of the putative stem cells, DFSCs were subjected to various differentiation procedures. For osteogenesis, cells were cultured for 2 weeks in medium consisting of DMEM-LG, 10% FBS, 50 μg/ml ascorbate-2 phosphate, 10^−8 M dexamethasone, and 10 mM β-glycerophosphate […] as previously described, followed by von Kossa and Alizarin Red staining to assess for mineral deposition (as described in Hung et al., 2002). For adipogenesis, DFSCs were cultured for 2 weeks in medium consisting of DMEM-LG, 10% FBS (Invitrogen Corporation, Carlsbad, Calif., USA), 50 μg/ml ascorbate-2 phosphate (Sigma-Aldrich), 10^−7 M dexamethasone, and 50 μg/ml indomethacin, with a medium change every 3 days (Hung et al., 2002). The cells then were stained with Oil red O to evaluate adipogenesis.
In another experiment to determine to enrich the populations of stem cells, DFSCs were treated with doxorubicin (DOX), a substrate of BCRP, at concentrations of 0.5, 1 or 2 μM for 1, 2, 4 and 6 hrs. The cells were incubated at 37° C. for the designated duration. […] The number of viable cells was counted in 5 to 10 randomly selected spots (1 mm^2 each) for calculation of the survival rate as the ratio of treatment/control. […]

[3] = system: DFSCs; assay: 4-HC treatment of DFSCs for elimination of non-stem cells; details: 5-25 μM tested, 48 hours at 37° C., α-MEM with 20% FBS
Procedure: as §1
We also tested an ALDH substrate, 4-hydroperoxycyclophosphamide (4-HC), for elimination of non-stem cells in culture. […] Putative stem cells surviving from a 4-HC treatment expressed a high level of multiple stem cell markers, including Abcb1, Prom1, Notch 1, and CD34, as determined by RT-PCR and western blotting. On the average, about a 2 to 4-fold increase in expression of these markers was detected in the 4-HC surviving cells as compared to the original population.

[4] = system: Abcb1, Prom1, Notch 1, and CD34; assay: Stem cell marker expression in 4-HC surviving cells by RT-PCR and western blotting; details: 4-HC surviving cells compared to the original population; on the average
Procedure: We also tested an ALDH substrate, 4-hydroperoxycyclophosphamide (4-HC), for elimination of non-stem cells in culture. DFSCs were cultured as described above and then treated with 4-HC at the concentrations of 5, 10, 15, 20 and 25 μM in α-MEM medium containing 20% FBS for 48 hours at 37° C. The majority of the cells were killed at a 4-HC concentration greater than 15 μM. The surviving cells then were collected and subjected to cell proliferation, differentiation, and gene expression assays as described above for evaluation of stem cell properties. Putative stem cells surviving from a 4-HC treatment expressed a high level of multiple stem cell markers, including Abcb1, Prom1, Notch 1, and CD34, as determined by RT-PCR and western blotting. On the average, about a 2 to 4-fold increase in expression of these markers was detected in the 4-HC surviving cells as compared to the original population.

[5] = system: DFSCs; assay: Proliferation of cells surviving 4-HC treatment (flow cytometry analysis)
[6] = system: dental follicle cells (DFCs; non-stem cells); assay: 4-HC treatment of dental follicle cells (non-stem cells); details: same 4-HC treatment protocol applied to DFCs

SMILES	number of surviving cells [1]	adipocyte formation of surviving cells in adipogenesis induction medium [2]	4-HC concentration at which the majority of the cells were killed [3]	increase in expression of stem cell markers [4]	proliferation rate of putative stem cells surviving 4-HC ([5]; flow cytometry, compared to original cell population not subjected to 4-HC)	effect of 4-HC treatment on proliferation of the cells ([5]; surviving cells)	survival of cells [6]
COc1cccc2c1C(=O)c1c(O)c3c(c(O)c1C2=O)C[C@@](O)(C(=O)CO)C[C@@H]3O[C@H]1C[C@H](N)[C@H](O)[C@H](C)O1 [DOX, doxorubicin]	decreasing	majority of the cells forming Oil Red O positive adipocytes					
O=P1(N(CCCl)CCCl)NC(OO)CCO1 (stereo not shown) [4-HC, 4-hydroperoxycyclophosphamide]			greater than 15 μM	2 to 4 fold	higher proliferation rate	did not adversely affect	none of them survived
